The values that follow come from patent US20170354639A1, “DITERPENOID DERIVATIVES AND METHODS OF USE THEREOF” (Biogen MA Inc., priority 2014, published 2017).

This assay addresses Nrf2-Keap1 (Homo sapiens, UniProt Q14145). In words: DiscoveRx PathHunter Nrf2-Keap1 nuclear translocation functional assay (agonist format). In kind it is cell-based. To be noted: in duplicate, agonist mode; for pEC50: 10 concentrations, 3-fold serial dilutions, 30 μM top concentration, normalized to CDDO methyl ester and vehicle; for activation at 10 µM / % Activation @ 10 μM: single concentration of 10 μM, normalized to control ligand (CDDO methyl ester) and vehicle. On the procedure: DiscoveRx PathHunter® Nrf2-Keap1 Functional Assay
DiscoveRx's Nrf2-Keapl translocation assay was used to profile compounds. Primary Screening was performed in duplicate at a single concentration of 10 μM and EC50 determinations were performed in duplicate at 10 concentrations with 3-fold serial dilutions at a 30 μM top concentration or an otherwise specified top concentration.
The PathHunter® Nuclear Translocation assay detects translocation of a target protein to, or from, the nucleus. In this system, Prolink™ (PK), a small enzyme fragment, is fused to the protein of interest and Enzyme Acceptor (EA) is localized in the nucleus. Activation of the signaling pathway induces the target protein to either transit into the nucleus, thus forcing complementation of the PK and EA fragments, or out of the nucleus, hindering complementation of the fragments.
Cell handling: PathHunter Pathway cell lines were expanded from freezer stocks according to standard procedures. 5000 cells were seeded in Cell Plating Reagent 0 (containing 1% FBS) to a total volume of 20 μL into white walled, 384-well microplates and incubated for the overnight prior to testing.
Agonist format: For Agonist determination, cells were incubated with sample to induce response. Dilution of sample stocks was performed to generate 100× sample in DMSO. Intermediate dilution of sample stocks was performed to generate 5× sample in assay buffer (Cell Plating Reagent 0 containing 1% FBS). 5 μL of 5× sample was added to cells and incubated at room temperature for 6 hours. Vehicle concentration was 1%.
Signal detection: Assay signal was generated through a single addition of 25 μL (100% v/v) of PathHunter Flash Detection reagent, followed by a one hour incubation at room temperature. Microplates were read following signal generation with a PerkinElmer Envision™ instrument for chemiluminescent signal detection.
Data analysis: Compound activity was analyzed using CBIS data analysis suite (ChemInnovation, CA). For agonist mode assays, percentage activity was calculated using the following formula: % Activity=100%×(mean RLU of test sample−mean RLU of vehicle control)/(mean MAX RLU control ligand−mean RLU of vehicle control). For EC50 determination, a control agonist dose response curve was generated in the Keap 1-Nrf2 biosensor assay, data was normalized to the maximal and minimal response observed in the presence of the control ligand and vehicle respectively. CDDO methyl ester was used as a control compound. Compounds were tested in the agonist mode of the assay and data was normalized to the maximal and minimal response observed in the presence of control ligand and vehicle.

SMILES strings stand for the structures. pEC50: −log10 of the molar value.

Sequence of Nrf2-Keap1 (Q14145 whole entry): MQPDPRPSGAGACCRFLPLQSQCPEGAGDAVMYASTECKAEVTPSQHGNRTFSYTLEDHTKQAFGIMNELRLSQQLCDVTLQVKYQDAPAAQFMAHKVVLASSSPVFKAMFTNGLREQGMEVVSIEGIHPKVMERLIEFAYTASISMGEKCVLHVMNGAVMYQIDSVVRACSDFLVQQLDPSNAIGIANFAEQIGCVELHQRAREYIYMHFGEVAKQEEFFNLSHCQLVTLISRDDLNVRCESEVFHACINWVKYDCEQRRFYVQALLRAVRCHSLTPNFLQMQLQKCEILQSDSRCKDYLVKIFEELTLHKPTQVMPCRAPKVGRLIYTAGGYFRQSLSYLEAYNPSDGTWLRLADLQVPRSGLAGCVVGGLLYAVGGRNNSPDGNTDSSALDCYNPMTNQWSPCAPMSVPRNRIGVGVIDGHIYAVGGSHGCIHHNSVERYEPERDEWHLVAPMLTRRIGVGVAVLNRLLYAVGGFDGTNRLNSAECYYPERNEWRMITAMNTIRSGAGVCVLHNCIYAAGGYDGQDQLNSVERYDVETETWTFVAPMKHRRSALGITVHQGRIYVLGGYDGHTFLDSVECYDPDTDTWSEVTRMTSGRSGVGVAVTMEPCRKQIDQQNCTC

Take `C=C1CC[C@@H]2[C@]3(C)COS(=O)O[C@@H]3CC[C@@]2(C)[C@@H]1C/C=C1/C(=O)OC[C@H]1NC=O` (single isomer, unassigned) [Example 20]: the pEC50 (in general, the EC50 on a negative log10 scale, so that one unit is a factor of ten) is 5.70 to 6.30. The compound also came in with an activation at 10 µM (6 h) above 100%.
In turn, `C=C1CC[C@@H]2[C@]3(C)COS(=O)O[C@@H]3CC[C@@]2(C)[C@@H]1C/C=C1/C(=O)OC[C@H]1NC(=O)OC` (single isomer, unassigned) [Example 30] returned an activation at 10 µM (6 hours) of 51 to 100%.
`C=C1CC[C@@H]2[C@]3(C)COS(=O)O[C@@H]3CC[C@@]2(C)[C@@H]1C/C=C1/C(=O)OC[C@@H]1NC(=O)OC` (single isomer, unassigned) [Example 31] gave a negative-log EC50 (pEC50) of 5.70 to 6.30. The activation at 10 µM (6 hours) was above 100%.
In turn, `C=C1CC[C@@H]2[C@]3(C)COCO[C@@H]3CC[C@@]2(C)[C@@H]1C/C=C1/C(=O)OCC1NC=O` (single isomer, unassigned) [Example 39A] had a pEC50 of 5.70 to 6.30. Further, for the setting “6 hours”, the “% Activation @ 10 μM” value is listed as “A (A: >100%)”.
As for `C=C1CC[C@@H]2[C@]3(C)COCO[C@@H]3CC[C@@]2(C)[C@@H]1C/C=C1/C(=O)OCC1NC=O` (single isomer, unassigned) [Example 39B], the “% Activation @ 10 μM” value (6 hours) was “B (B: 51 to 100%)”.
In the case of `C=C1CC[C@@H]2[C@]3(C)COS(=O)O[C@@H]3CC[C@@]2(C)[C@@H]1C/C=C1/C(=O)OCC1NC(=O)COC` (single isomer, unassigned) [Example 40B], the negative logarithm of the EC50 (pEC50) was 5.70 to 6.30. Where the note is “6 hours”, this compound gave an activation at 10 µM above 100%.
Consider `C=C1CC[C@@H]2[C@]3(C)COS(=O)O[C@@H]3CC[C@@]2(C)[C@@H]1C/C=C1/C(=O)OCC1NC(=O)CO` (single isomer, unassigned) [Example 41A], for which the pEC50 was below 5.70.
The compound `C=C1CC[C@@H]2[C@]3(C)COS(=O)O[C@@H]3CC[C@@]2(C)[C@@H]1C/C=C1/C(=O)OCC1NC(=O)CO` (single isomer, unassigned) [Example 41B] showed a pEC50 of 5.70 to 6.30.
In turn, `C=C1CC[C@@H]2[C@@H](C)[C@@](O)(C(F)(F)F)CC[C@@]2(C)[C@@H]1C/C=C1/C(=O)OCC1NC=O` (single isomer, unassigned) [Example 43A] showed a pEC50 of 5.70 to 6.30.
Compound `C=C1CC[C@@H]2[C@@H](C)[C@@](O)(C(F)(F)F)CC[C@@]2(C)[C@@H]1C/C=C1/C(=O)OCC1NC=O` (single isomer, unassigned) [Example 43B] showed a pEC50 above 6.30.
`C=C1CC[C@@H]2[C@@H](C)[C@](O)(C(F)(F)F)CC[C@@]2(C)[C@@H]1C/C=C1/C(=O)OCC1NC=O` (single isomer, unassigned) [Example 44A] had a negative-log EC50 (pEC50) below 5.70.
In the case of `C=C1CC[C@@H]2[C@@H](C)[C@](O)(C(F)(F)F)CC[C@@]2(C)[C@@H]1C/C=C1/C(=O)OCC1NC=O` (single isomer, unassigned) [Example 44B], the negative logarithm of the EC50 (pEC50) was 5.70 to 6.30.
Same read-out and setting: as for `C=C1CC[C@@H]2[C@]3(C)COCO[C@@H]3CC[C@@]2(C)[C@@H]1C/C=C1/C(=O)OCC1NC(C)=O` (single isomer, unassigned) [Example 45A], the figure is below 5.70; as for `C=C1CC[C@@H]2[C@]3(C)COCO[C@@H]3CC[C@@]2(C)[C@@H]1C/C=C1/C(=O)OCC1NC(C)=O` (single isomer, unassigned) [Example 45B], below 5.70.
`C=C1CC[C@@H]2[C@]3(C)COCO[C@@H]3CC[C@@]2(C)[C@@H]1C/C=C1/C(=O)OCC1NC(=O)COC` (single isomer, unassigned) [Example 46A] showed a pEC50 below 5.70.
Compound `C=C1CC[C@@H]2[C@]3(C)COCO[C@@H]3CC[C@@]2(C)[C@@H]1C/C=C1/C(=O)OCC1NC(=O)COC` (single isomer, unassigned) [Example 46B] gave a pEC50 below 5.70.
Regarding `C=C1CC[C@@H]2[C@@H](C)[C@@H](O)CC[C@@]2(C)[C@@H]1C/C=C1/C(=O)OC[C@H]1O` [Example 1, (S,E)-4-hydroxy-3-(2-((1R,4aR,5R,6S,8aR)-6-hydroxy-5,8a-dimethyl-2-methylenedecahydronaphthalen-1-yl)ethylidene)dihydrofuran-2(3H)-one], the negative logarithm of the EC50 (pEC50) was 5.70 to 6.30. This compound displayed an activation at 10 µM (6 h) of 51 to 100%.
`C=C1CC[C@@H]2[C@@H](C)[C@H](O)CC[C@@]2(C)[C@@H]1C/C=C1/C(=O)OC[C@H]1O` [Example 2, (S,E)-4-hydroxy-3-(2-((1R,4aR,5R,6R,8aR)-6-hydroxy-5,8a-dimethyl-2-methylenedecahydronaphthalen-1-yl)ethylidene)dihydrofuran-2(3H)-one] showed a pEC50 above 6.30. Besides, the activation at 10 µM (6 h) is above 100%.
On to `CC1=CC[C@@H]2[C@@H](C)[C@H](O)CC[C@@]2(C)[C@@H]1C/C=C1/C(=O)OC[C@H]1O` [Example 3, (S,E)-4-hydroxy-3-(2-((1R,4aR,5R,6R,8aR)-6-hydroxy-2,5,8a-trimethyl-1,4,4a,5,6,7,8,8a-octahydronaphthalen-1-yl)ethylidene)dihydrofuran-2(3H)-one], for which the pEC50 was above 6.30. Also, for the setting “6 h”, the activation at 10 µM is above 100%.
For `C=C1CC[C@@H]2[C@@H](C)[C@](C)(O)CC[C@@]2(C)[C@@H]1C/C=C1/C(=O)OC[C@H]1O` [Example 4, (S,E)-4-hydroxy-3-(2-((1R,4aR,5R,6R,8aR)-6-hydroxy-5,6,8a-trimethyl-2-methylenedecahydronaphthalen-1-yl)ethylidene)dihydrofuran-2(3H)-one], the negative logarithm of the EC50 (pEC50) was above 6.30. The compound also showed an activation at 10 µM (6 h) above 100%.
As to `C=C1CC[C@@H]2[C@@H](C)[C@@](C)(O)CC[C@@]2(C)[C@@H]1C/C=C1/C(=O)OC[C@H]1O` [Example 5, (S,E)-4-hydroxy-3-(2-((1R,4aR,5R,6S,8aR)-6-hydroxy-5,6,8a-trimethyl-2-methylenedecahydronaphthalen-1-yl)ethylidene)dihydrofuran-2(3H)-one], the negative logarithm of the EC50 (pEC50) was above 6.30. The activation at 10 µM (6 h) was above 100%.
Compound `C=C1CC[C@H]2[C@@](C)(CC[C@](C)(O)[C@@]2(C)CO)[C@@H]1C/C=C1/C(=O)OC[C@H]1O` [Example 6, (S,E)-4-hydroxy-3-(2-((1R,4aS,5R,6S,8a5)-6-hydroxy-5-(hydroxymethyl)-5,6,8a-trimethyl-2-methylenedecahydronaphthalen-1-yl)ethylidene)dihydrofuran-2(3H)-one] returned an activation at 10 µM (6 h) of 51 to 100%.
With `C=C1CC[C@H]2[C@@](C)(CC[C@@](C)(O)[C@@]2(C)CO)[C@@H]1C/C=C1/C(=O)OC[C@H]1O` [Example 7, (S,E)-4-hydroxy-3-(2-((1R,4aS,5R,6R,8a5)-6-hydroxy-5-(hydroxymethyl)-5,6,8a-trimethyl-2-methylenedecahydronaphthalen-1-yl)ethylidene)dihydrofuran-2(3H)-one], the activation at 10 µM (6 h) is 51 to 100%.
Regarding `C=C1CC[C@@H]2[C@]3(C)CO[S@](=O)O[C@@H]3CC[C@@]2(C)[C@@H]1C/C=C1/C(=O)OC[C@H]1O` [Example 8, (S,E)-3-(2-((3S, 4aR, 6aS, 7R, 10aS, 10bR)-6a,10b-dimethyl-8-methylene-3-oxidodecahydro-1H-naphtho[2,1-d][1,3,2]dioxathiin-7-yl)ethylidene)-4-hydroxydihydrofuran-2(3H)-one], the pEC50 was 5.70 to 6.30. For the same compound, the activation at 10 µM (6 h) is above 100%.
